Source: article PMC8312610, “F4, a collagen XIX-derived peptide, inhibits tumor angiogenesis through αvβ3 and α5β1 integrin interaction” (Cell Adhesion & Migration, 2021)
Entries after “also recorded” stand apart in the source; their conditions may differ. Positions of bridges follow the written chain, without caps; N, C: chain ends. No end group written: not given here.

What was measured:
[1] = system: α5β1 integrin; parameters: method as in PMID 26975851; details: NC1(XIX) covalently coupled to agarose beads, cortical protein extract; ref [27]; cited from earlier work
[2] = system: mouse melanoma model; details: mouse melanoma model; ref [22],[23]; cited from earlier work
Source text: (§1) The aim of the present work was to study the anti-angiogenic properties of F4 peptide. […] By affinity chromatography, we identified αvβ3 and α5β1 integrins as potential receptors for F4 peptide on endothelial cell surface. Using solid phase assays, ... || Type XIX collagen, that belongs to the FACIT family (Fibril-Associated Collagens with Interrupted Triple helices), is a minor collagen associated to the basement membrane zone.

[3] = system: melanoma cell; details: earlier work of the authors; ref [22],[23]; cited from earlier work
Source text: as §1

[4] = system: HUVEC (Human Umbilical Vein Endothelial Cells); assay: HUVEC proliferation (crystal violet); type: cell-based; details: 40 μM, 48 h, 5,000 HUVEC per well in ECGM, 560 nm, means ± SD (n = 16), N = 3
Protocol: Figure 1. […] 5,000 HUVEC were seeded in a 96 well plate and incubated with or without 40 μM NC1(XIX) or F4 for 48 hours. After washing, cells were fixed with glutaraldehyde and stained with crystal violet. Dye was eluted with 10% acetic acid and absorbance was read at 560 nm. The values are the means ± SD (n = 16). The experiment was repeated three times (N = 3) and the results presented in the figure correspond to the more representative one
(§2) Human Umbilical Vein Endothelial Cells (HUVEC) (Ref C-12253) were purchased from Promocell. They were grown in Endothelial Cell Growth Medium (ECGM) (Promocell, Ref C-22110: Basal medium supplemented with 0.02 mL/mL Fetal Calf Serum, 0.004 mL/mL Endothelial Cell Growth Supplement, 0.1 ng/mL Epidermal Growth Factor (recombinant human), 1 ng/mL Basic Fibroblast Growth Factor (recombinant human), 90 μg/mL Heparin, 1 μg/mL Hydrocortisone) at +37°C in a humid atmosphere containing 5% CO2. PromoCell Detach Kit was used for the detachment of HUVEC according to the manufacturer’s protocols (Promocell, ref C-41200).
For cell proliferation measurement, 5,000 HUVEC were seeded in 96-well plates and cultivated in ECGM with or without 40 μM NC1(XIX) or F4 at +37°C in a humid atmosphere containing 5% CO2. […] Dye was eluted with 10% (v/v) acetic acid and absorbance was read at 560 nm.

[5] = system: inhibitory nerve terminal assembly; parameters: method as in PMID 26975851; details: in vitro; ref [27]; cited from earlier work
[6] = system: Sprague Dawley rat aortic rings; assay: Ex vivo rat aortic ring assay (endothelial cell outgrowth); type: cell-based; details: 40 μM, 14 days, Opti-MEM with 30 ng/mL VEGF, Matrigel, mean ± SD (n = 5), N = 2; p < 0.01 NC1(XIX), p < 0.001 F4
Protocol: Figure 3. NC1(XIX) and F4 inhibit endothelial cell ex vivo migration. Rat aortic rings were embedded in Matrigel in 24 well-plate and then incubated with or without 40 μM NC1(XIX) or F4 for 14 days. Micro-vessel outgrowth was observed under an inverted microscope after 14 days and photographed (a). Cell outgrowth from the tissue explant was measured using a home-made macro based on ImageJ analysis software. The results are presented as mean ± SD (n = 5 replicates) (b). The experiment was repeated twice (N = 2)
The ex vivo rat aortic ring assay was adapted from Baker et al.. Thoracic aorta was dissected from Sprague Dawley rat and stored in Opti-MEM (ThermoFisher, ref 31985062) supplemented with 1% penicillin/streptomycin in a Petri dish. Aorta was then cut into 0.5 mm rings that were incubated in Opti-MEM overnight at +37°C in a Petri dish. Matrigel (7 mg/mL) was loaded in 24-well plate and allowed to polymerize at +37°C for 30 min. The rings were carefully transferred from the Petri dish onto the Matrigel coated wells and were completely embedded by addition of Matrigel. The plate was incubated at +37°C for 30 min. Opti-MEM supplemented with 30 ng/mL VEGF with or without 40 μM NC1(XIX) or F4 was added. Plate was incubated at +37°C in a humid atmosphere containing 5% CO2 for 14 days. The supplemented culture medium was changed every 3 days. Rings were imaged under an inverted light microscope at 14 days. Quantitative evaluation of the angiogenic sprouting was determined by measuring the number of endothelial cell outgrowth from the primary tissue explant using a homemade macro based on ImageJ analysis software. The first step consisted in the semi-automatic selection of aortic ring shape at day 0 by manual threshold allowing the design of a top hat filter to obtain a relevant mask of this structure. The mask was then substracted from day 14 image to keep only outgrowing cells. The second step consisted in a manual threshold and the use of ‘Analyze Particules’ tool involving size criteria. The total cell number of cell outgrowing from the ring was determined.

[7] = system: HUVEC; assay: Capillary (pseudo-)tube formation on Matrigel; type: cell-based, human; details: 40 µM
Protocol: Figure 2. NC1(XIX) and F4 inhibit endothelial cell in vitro pseudotube formation. 50,000 HUVEC were seeded in Matrigel coated well of a 48 well-plate and incubated with or without 40 μM NC1(XIX) or F4. Pseudotube formation was observed and photographed under an inverted microscope after 8 hours (a). The number of segments, of nodes and the total length of pseudotubes were quantified by the ImageJ software, using the Angiogenesis Analyzer tool (b). The values are the means ± SD (n = 8 replicates). *** p < 0.001). The experiment was repeated three times (N = 3)
as §2
The ability of HUVEC to form pseudo-tubes was investigated on Matrigel (Corning, ref 356237). Matrigel was loaded into 48-well plate and allowed to polymerize at +37°C for 2 h. 50,000 HUVEC suspended in Basal media supplemented with 0.004 mL/mL Endothelial Cell Growth Supplement, 90 μg/mL Heparin, 1 μg/mL Hydrocortisone with or without 40 μM NC1(XIX) or F4 were seeded into each well. Plates were incubated at +37°C in a humid atmosphere containing 5% CO2, 95% for 8 h. The formation of the capillary network was then imaged under an inverted light microscope. Quantitative evaluation of the capillary network was performed using the angiogenesis analyzer tool of ImageJ analysis software. The number of nodes, of segments and the total length of the capillary network were determined.

[8] = system: α5β1 integrin; assay: Solid phase assay, direct binding to α5β1; parameters: species or system human; details: coated integrin 26 × 10^−7 to 0.1 × 10^−7 mol/L; biotinylated-F4 26 × 10^−5 mol/L, or 20.8 × 10^−4 to 0.16 × 10^−4 mol/L; 90 min, room temperature, streptavidin-peroxidase/TMB, 450 nm; N = 2
Source text: (§3) Figure 5. F4 directly binds to αvβ3 and α5β1 integrins. Direct interaction between αvβ3 or α5β1 integrin and F4 was studied using solid phase assays as described in the material and method section. The F4 peptide was biotinylated to allow its detection using the streptavidin-peroxidase complex. Different conditions were used. (a-b) The amounts of coated αvβ3 (a) or α5β1 integrin (b) were increased while biotinylated F4 peptide was kept constant. (c-d) The concentration of biotinylated F4 peptide was increased while coated amounts of αvβ3 (c) or α5β1 (d) integrins were kept constant. (e-f) Competitive assays were performed using increasing concentrations of F4 peptide while biotinylated-F4 peptide and αvβ3 (e) or α5β1 (f) integrins were kept constant. […]
(§4) Wells of a 96-well plate were coated with α5β1 (ref. 3230-A5-050, R&D systems) and/or αvβ3 integrin (ref. 3050-AV-050, R&D systems) at different concentrations ranging from 26 × 10^−7 mol/L to 0.1 × 10^−7 mol/L (100 μL per well in PBS). […] The intensity of the yellow coloration was measured at 450 nm with an LB940 spectrophotometer (Berthold Technologies).
(§5) The optimum integrin amount for the coating was determined using the above protocol and the optimum ligand concentration was sought using different dilutions of the biotinylated-F4 peptide ranging from 20.8 × 10^−4 to 0.16 × 10^−4 mol/L.

[9] = system: αvβ3 integrin; assay: Solid phase assay, direct binding to αvβ3; parameters: species or system human; details: coated integrin 26 × 10^−7 to 0.1 × 10^−7 mol/L; biotinylated-F4 26 × 10^−5 mol/L, or 20.8 × 10^−4 to 0.16 × 10^−4 mol/L; 90 min, room temperature, streptavidin-peroxidase/TMB, 450 nm; N = 2
Source text: as §3, §4, §5

[10] = 8 h, 50,000 HUVEC on Matrigel, ImageJ Angiogenesis Analyzer, p < 0.001 for NC1(XIX) and F4, n = 8, N = 3

Substance	purification of α5β1 integrin on immobilised peptide [1]	in vivo tumor growth and angiogenesis [2]	melanoma cell migration and invasion [3]	effect on HUVEC proliferation [4]	inhibitory nerve terminal assembly [5]	change of cell outgrowth from aortic ring vs control [6] [%]	decrease of the number of nodes vs control [7, 10] [%]	decrease of the number of segments vs control [7, 10] [%]	decrease of the total length of capillary tubes vs control [7, 10] [%]	inhibition of pseudo-tube formation ([7]; 8 h, HUVEC on Matrigel, compared to control)	binding to α5β1, concentration dependence [8]	binding to αvβ3, concentration dependence [9]
NPEDCLYPVSHAHQRTGGN [NC1(XIX), NC1(XIX) domain at the C-terminus of the α1(XIX) collagen chain]	able to purify α5β1 integrin from cortical protein extract	strongly inhibits in vivo tumor growth as well as angiogenesis	inhibits melanoma cell migration and invasion	not significantly modified; also recorded: does not affect endothelial cell proliferation	involved in triggering inhibitory nerve terminal assembly in vitro	−57	57	33	31	strongly inhibited pseudo-tube formation	–	–
biotinylated-F4: The F4 peptide was biotinylated to allow its detection using the streptavidin-peroxidase complex (CNPEDCLYPVSHAHQR; disulfide 1-6 (inferred); also: biotinylated (position not given here))	–	–	–	–	–	–	–	–	–	–	dependent both on the receptor (Figure 5(a,b)) and on ligand (Figure 5(c,d)) concentrations	dependent both on the receptor (Figure 5(a,b)) and on ligand (Figure 5(c,d)) concentrations
